{"source": "paper PMC11620506", "about": "“Inhibition of endocytic uptake of severe acute respiratory syndrome coronavirus 2 and endo-lysosomal acidification by diphenoxylate” (Antimicrobial Agents and Chemotherapy, 2024)", "key": {"[1]": {"system": "endo-lysosomal vesicles of Vero cells", "assay": "Acridine orange staining of endo-lysosomal vesicle pH in Vero cells", "format": "cell-based", "conditions": "10 µM, 1 h at 37°C", "experimental": "To monitor pH changes in endo-lysosomal vesicles, Vero cells (8 × 10^4 cells per 35 mm dish) were treated with either DMSO or 10 µM diphenoxylate for 1 h at 37°C. After washing with PBS, they were stained with acridine orange (8 µg/mL) for an additional 30 min. With excitation at 488 nm, live cell images were scanned at two wide-band emission wavelength ranges: 493–560 nm (green) and 590–720 nm (red). All fluorescent images were obtained using a Zeiss LSM 700 confocal microscope and analyzed with ZEN software (Carl Zeiss, Thornwood, NY, USA).\nFig 4 Deacidification of endo-lysosomal vesicles by diphenoxylate. Vero cells were treated with DMSO as a mock control (upper), or with 10 µM diphenoxylate (lower), at 37°C for 1 h. […] Fluorescence images were acquired after excitation at 488 nm, at two different emission wavelengths: 493–560 nm (green; left) and 590–720 nm (red; middle). The images were merged (right) to distinguish acidic (red) and neutralized cytoplasmic vesicles (green or yellow) based on the red-to-green fluorescence intensity ratio. […]\nFigure S2. […] After excitation at 488 nm, fluorescence images were acquired at two different emission wavelengths: 493-560 nm (green; left) and 590-720 nm (red; middle). The images were merged (right) to distinguish acidic (red) and neutralized cytoplasmic vesicles (green or yellow) based on the red-to-green fluorescence intensity ratio. […]"}, "[2]": {"conditions": "mice"}, "[3]": {"system": "SARS-CoV-2 (original wild-type, hCoV-19/Korea/KCDC06/2020)", "assay": "microbe, parasite or virus in culture", "format": "cell-based", "conditions": "for EC50: Severe acute respiratory syndrome coronavirus 2, Vero cells, immunofluorescence images, n = 3, read-out: EC50, half maximal effective concentration to reduce SARS-CoV-2 spike protein expression by 50%"}, "in vivo": {"assay": "in vivo", "conditions": "male, ICR, mouse, iv, 5 mg/kg, T1/2, terminal half-life in plasma, mice, diphenoxylate 5 mg/kg intravenously, analyte in plasma, mean ± SEM, three mice"}, "in vitro": {"assay": "in vitro", "conditions": "African green monkey", "description": "Following the method described earlier, Vero cells in 96 wells were treated with threefold serial dilutions of each compound, ranging from 100 µM to 5 nM, both with and without SARS-CoV-2 infection at 0.01 MOI. […] Concurrently, the viability of mock-infected cells was assessed using a 3-(4,5-dimethylthiazol-2-yl)−2,5-diphenyltetrazolium bromide (MTT) assay to determine the 50% cytotoxic concentration (CC50). The selectivity index (SI) is calculated as the ratio of CC50 to EC50."}, "SARS-CoV-2 [4]": {"system": "SARS-CoV-2", "format": "cell-based", "conditions": "Calu-3 cells, day 2"}, "SARS-CoV-2 [5]": {"system": "SARS-CoV-2", "assay": "Confocal microscopy of viral N protein distribution (endocytic uptake) in Vero cells", "format": "cell-based", "conditions": "10 or 30 µM"}, "SARS-CoV-2 [6]": {"system": "SARS-CoV-2", "format": "cell-based"}, "SARS-CoV-2 [7]": {"system": "SARS-CoV-2", "format": "in vivo, mice"}, "SARS-CoV-2 [8]": {"system": "SARS-CoV-2", "format": "cell-based", "conditions": "Vero cells; 1, 10 and 100 µM; day 1"}, "SARS-CoV-2 [9]": {"system": "SARS-CoV-2", "format": "cell-based", "remark": "listed apart in the source"}, "SARS-CoV-2 [10]": {"system": "SARS-CoV-2", "format": "cell-based", "conditions": "Calu-3 cells; 0.001–100 µM; day 2"}, "SARS-CoV-2 [11]": {"system": "SARS-CoV-2", "assay": "Antiviral assay using human tonsil organoids (RT-PCR of supernatants)", "format": "cell-based", "conditions": "day 2"}, "SARS-CoV-2 [12]": {"system": "SARS-CoV-2", "format": "cell-based", "conditions": "20 µM, Vero cells; for nuclei numbers compared to the control: DAPI"}, "SARS-CoV-2 [13]": {"system": "SARS-CoV-2", "assay": "Antiviral activity assay (anti-S immunofluorescence) in Calu-3 cells", "conditions": "Severe acute respiratory syndrome coronavirus 2, Calu-3, 24 h", "excerpt": "These mixtures were serially diluted threefold, eight times, in EMEM and used to treat SARS-CoV-2-infected Calu-3 cells (MOI of 0.01). On day 1, cells were immunostained with an anti-S-antibody and its fluorescently labeled secondary antibody to estimate the two fractional EC50s (FEC50s) for each drug combination, as well as their sum (ΣFEC50). The interaction was defined as synergistic when the ΣFEC50 value was less than 0.8 ([27]).\nCalu-3 cells were either mock-infected or infected with SARS-CoV-2 (MOI, 0.1)\n(§1) On Day 1 after treatment, the viral S protein was labeled with its specific antibody for an\nimmunofluorescence assay, while mock-infected cells were incubated with MTT.\n(§2) activity was determined by calculating the percentage inhibition of the S protein level relative\nto that in SARS-CoV-2-infected, DMSO-treated cells (red line).\n(§3) are represented as the mean ± SEM from three independent experiments."}, "Calu-3 cells": {"system": "Calu-3 cells", "conditions": "MTT", "description": "Calu-3 cells. Calu-3 cells were either mock-infected or infected with SARS-CoV-2 (MOI, 0.1)\nas §1\nimmunofluorescence assay, while mock-infected cells were incubated with MTT. Antiviral\nas §2\nto that in SARS-CoV-2-infected, DMSO-treated cells (red line). Cell viability was determined\nby measuring cell metabolic activity using MTT relative to naive cells (black line). All values\nas §3"}, "[14]": {"conditions": "cited from earlier work"}}, "note": "“Also recorded” adds a separate entry of the source. Read-outs that look alike come from different tables or passages of the source.", "data": [{"smiles": "N#CC(CCN1CCC(C(=O)O)(c2ccccc2)CC1)(c1ccccc1)c1ccccc1", "note": "[Difenoxin, difenoxin]", "values": [{"measurement": "effect on acidic pH of endo-lysosomal vesicles", "setting": "[1]", "value": "failed to deacidify endo-lysosomes"}, {"measurement": "T1/2, terminal half-life in plasma", "setting": "[2]; diphenoxylate 5 mg/kg intravenously, analyte in plasma, mean ± SEM, three mice", "value": "3.6 ± 0.2", "unit": "h"}, {"measurement": "EC50", "setting": "[3]", "value": "> 100", "unit": "µM"}, {"measurement": "half-life", "setting": "in vivo", "value": 6.4, "unit": "h"}, {"measurement": "CC50", "setting": "in vitro", "value": "> 100", "unit": "µM"}]}, {"smiles": "CCOC(=O)C1(c2ccccc2)CCN(CCC(C#N)(c2ccccc2)c2ccccc2)CC1", "note": "[Diphenoxylate, diphenoxylate]", "values": [{"measurement": "decrease of viral RNA levels in culture supernatants", "setting": "SARS-CoV-2 [4]; 10 µM", "value": "one"}, {"measurement": "effect on receptor-mediated endocytosis of SARS-CoV-2 (N protein localisation)", "setting": "SARS-CoV-2 [5]", "value": "inhibits receptor-mediated endocytosis of SARS-CoV-2"}, {"measurement": "effect on acidic pH of endo-lysosomal vesicles", "setting": "[1]", "value": "neutralizes the acidic environment of endo-lysosomal organelles"}, {"measurement": "fraction converted into difenoxin", "setting": "[2]; within 30 min after intravenous injection, 5 mg/kg", "value": "approximately 90%"}, {"measurement": "reduction in plaque numbers", "setting": "SARS-CoV-2 [6]", "value": "approximately two-log reduction; also recorded: substantial reduction; also recorded: not under the post-treatment condition"}, {"measurement": "reduction in plaque numbers", "setting": "SARS-CoV-2 [6]; 20 µM, co-treatment (pre-incu), 30 min preincubation with virus", "value": "substantial reduction"}, {"measurement": "reduction of viral RNA copy number in the lungs", "setting": "SARS-CoV-2 [7]; hACE2 transgenic mice, […], on day 3, 10 mg/kg/day", "value": 70, "unit": "%"}, {"measurement": "viral RNA levels in lungs (qRT-PCR, S gene)", "setting": "SARS-CoV-2 [7]; mouse, in vivo, 10 mg/kg/day", "value": "significantly reduced"}, {"measurement": "levels of S2 and additional S cleavage products (Western blot)", "setting": "SARS-CoV-2 [8]", "value": "dose-dependently reduced"}, {"measurement": "viral RNA copy numbers in culture supernatants", "setting": "SARS-CoV-2 [9]", "value": "efficiently suppressed"}, {"measurement": "expression of viral proteins S and N (Western blot)", "setting": "SARS-CoV-2 [10]", "value": "suppressed the expression of viral proteins S and N dose dependently"}, {"measurement": "reduction in viral RNA levels in culture supernatants", "setting": "SARS-CoV-2 [11]; 100 µM", "value": "between one and two logs"}, {"measurement": "SI, selectivity index, ratio of CC50 to EC50", "setting": "[3]", "value": ">71.4"}, {"measurement": "EC50", "setting": "[3]", "value": "1.4 ± 1.1", "unit": "µM"}, {"measurement": "half-life", "setting": "in vivo", "value": "6.4 ± 0.9", "unit": "h"}, {"measurement": "nuclei numbers compared to the control", "setting": "SARS-CoV-2 [12]", "value": "80%–120%"}, {"measurement": "reduction of S protein expression level", "setting": "SARS-CoV-2 [12]", "value": "over 90%"}, {"measurement": "EC50", "setting": "SARS-CoV-2 [13]", "value": "21.9 ± 2.1", "unit": "µM"}, {"measurement": "CC50", "setting": "in vitro", "value": "> 100", "unit": "µM"}, {"measurement": "cytotoxicity at the highest tested concentration", "setting": "Calu-3 cells; 300 µM", "value": "no cytotoxicity"}]}, {"smiles": "Fc1ccc(C(c2ccc(F)cc2)N2CCN(C/C=C/c3ccccc3)CC2)cc1", "note": "[Flunarizine, flunarizine]", "values": [{"measurement": "SI, selectivity index, ratio of CC50 to EC50", "setting": "[3]", "value": 2.4}, {"measurement": "EC50", "setting": "[3]", "value": "12.9 ± 5.7", "unit": "µM"}, {"measurement": "nuclei numbers compared to the control", "setting": "SARS-CoV-2 [12]", "value": "80%–120%"}, {"measurement": "reduction of S protein expression level", "setting": "SARS-CoV-2 [12]", "value": "over 90%"}, {"measurement": "CC50", "setting": "in vitro", "value": "30.6 ± 1.8", "unit": "µM"}]}, {"smiles": "COC(=O)C1=C(C)NC(C)=C(C(=O)OCCN2CCN(C(c3ccccc3)c3ccccc3)CC2)C1c1cccc([N+](=O)[O-])c1", "note": "(stereo not drawn) [Manidipine, manidipine]", "values": [{"measurement": "SI, selectivity index, ratio of CC50 to EC50", "setting": "[3]", "value": 1.7}, {"measurement": "EC50", "setting": "[3]", "value": "26.8 ± 1.1", "unit": "µM"}, {"measurement": "nuclei numbers compared to the control", "setting": "SARS-CoV-2 [12]", "value": "80%–120%"}, {"measurement": "reduction of S protein expression level", "setting": "SARS-CoV-2 [12]", "value": "over 90%"}, {"measurement": "CC50", "setting": "in vitro", "value": "46.6 ± 0.5", "unit": "µM"}]}, {"smiles": "Cc1cccc(CN2CCN(C(c3ccccc3)c3ccc(Cl)cc3)CC2)c1", "note": "(stereo not drawn) [Meclizine, meclizine]", "values": [{"measurement": "SI, selectivity index, ratio of CC50 to EC50", "setting": "[3]", "value": 4.2}, {"measurement": "EC50", "setting": "[3]", "value": "21.4 ± 3", "unit": "µM"}, {"measurement": "nuclei numbers compared to the control", "setting": "SARS-CoV-2 [12]", "value": "80%–120%"}, {"measurement": "reduction of S protein expression level", "setting": "SARS-CoV-2 [12]", "value": "over 90%"}, {"measurement": "CC50", "setting": "in vitro", "value": "89.5 ± 4.4", "unit": "µM"}]}, {"smiles": "CCC(CC)COC(=O)[C@H](C)N[P@](=O)(OC[C@H]1O[C@@](C#N)(c2ccc3c(N)ncnn23)[C@H](O)[C@@H]1O)Oc1ccccc1", "note": "[RDV, remdesivir]", "values": [{"measurement": "reduction of viral RNA levels in culture supernatants", "setting": "SARS-CoV-2 [4]; concentration not given", "value": "exceeding four logs"}, {"measurement": "levels of S2 and additional S cleavage products (Western blot)", "setting": "SARS-CoV-2 [8]", "value": "dose-dependently reduced"}, {"measurement": "viral RNA copy numbers in culture supernatants", "setting": "SARS-CoV-2 [9]", "value": "efficiently suppressed"}, {"measurement": "reduction in viral RNA levels in culture supernatants", "setting": "SARS-CoV-2 [11]; 10 µM", "value": "between one and two logs"}, {"measurement": "EC50", "setting": "[3]", "value": "7.6 ± 1.2", "unit": "µM"}, {"measurement": "CC50", "setting": "in vitro", "value": "> 100", "unit": "µM"}]}, {"smiles": "CN(C)c1ccc2cc3ccc(N(C)C)cc3nc2c1", "note": "[acridine orange]", "values": [{"measurement": "pKa", "setting": "[14]", "value": "approximately 9.65"}]}, {"smiles": "CC(C)C(=O)OC[C@H]1O[C@@H](n2ccc(NO)nc2=O)[C@H](O)[C@@H]1O", "note": "[molnupiravir]", "values": [{"measurement": "viral RNA levels in lungs (qRT-PCR, S gene)", "setting": "SARS-CoV-2 [7]; hACE2 transgenic mice, 50 mg/kg/day oral, BID, […]", "value": "significantly reduced"}]}, {"smiles": "N=C(N)c1ccc2cc(OC(=O)c3ccc(N=C(N)N)cc3)ccc2c1", "note": "[nafamostat]", "values": [{"measurement": "EC50", "setting": "SARS-CoV-2 [13]", "value": "0.0035 ± 0.0005", "unit": "µM"}, {"measurement": "cytotoxicity at the highest tested concentration", "setting": "Calu-3 cells; 300 nM", "value": "no cytotoxicity"}]}, {"smiles": "OC(CCN1CCCCC1)(c1ccccc1)c1ccccc1", "note": "[pridinol]", "values": [{"measurement": "EC50", "setting": "[3]", "value": "~96.4", "unit": "µM"}]}]}
